How the values were obtained:
[1] = system: Rag2 deficient mice; test: IL-33-induced ILC2-mediated AHR and airway inflammation in Rag2-deficient mice; assay type: in vivo, mouse
Method: FIGS. 3A-3H: α7nAChR agonist treatment ameliorates ILC2s mediated AHR. (FIG. 3A) Rag2-deficient mice were intranasally challenged with recombinant mouse IL-33 or PBS and also received α7nAChR agonist (125 μg) or PBS on days 1-3 according to scheme 3A. Measurement of lung function and analyses of bronchoalveolar lavage fluid (BALF) and lung histology followed on day 4. (FIGS. 3B-3C) Lung resistance and dynamic compliance. (FIG. 3D) Total number of cells and eosinophils in BALF. (FIG. 3E) Hematoxylin and eosin-stained lung sections (×200). Scale bars represent 50 μm. (FIG. 3F) Quantification of lung histopathology shown as number of inflammatory cells per 250 μm^2 and thickness of airway epithelium (μm). (FIG. 3G) Total number and frequency of lung ILC2s. (FIG. 3H) Percentage of IL-5^+ and IL-13^+ lung ILC2s determined by flow cytometry. Data are representative of at least four independent experiments and are presented as means±SEM (n=8; Student's test *, p<0.05; **, p<0.01; ***, p<0.001).
As reported previously^6-9,11,12,34,35, the IL-5 and IL-13 cytokines produced by activated ILC2s are essential for eosinophilic inflammation and AHR development. Applicants investigated whether the attenuated ILC2 function by α7nAChR stimulation in vitro could result in inhibition of ILC2-mediated AHR and allergic inflammation. Rag2 deficient mice (devoid of T and B cells) were given intranasal (i.n.) rm-IL-33, with or without α7nAChR agonist for three consecutive days (FIG. 3A). As IL-33 administration specifically induces ILC2s, thereby causing AHR, with this model Applicants can readily explore the effect of an α7nAChR agonist in ILC2-mediated AHR. One day after the last challenge, lung function was evaluated by direct measurements of lung resistance (RL) and dynamic compliance (Cdyn), as described in the materials and methods section. […] These findings concur with the reduction of AHR and eosinophil counts in BALF (FIGS. 3B-3D). Thus, α7nAChR agonist represses IL-5 and IL-13 production, eosinophil recruitment, and ILC2-dependent AHR.
(§1) Mice were intranasally (i.n.) administered carrier-free recombinant mouse IL-33 (BioLegend, San Diego Calif., 0.5 µg per mouse in 50 µL) with or without […] of α7nAChR agonist (kindly provided by Lin Chen) on three consecutive days. Mice were intranasally (i.n.) administered carrier-free recombinant mouse IL-25 (BioLegend, San Diego Calif., 5 µg per mouse in 50 µL) with or without […] of α7nAChR agonist on three consecutive days. For Alternaria alternata experiments, mice were i.n. administered Alternaria alternata (Greer Labs, Lenoir, N.C., 100 μg per mouse in 50 μL) with or without 125 µg α7nAChR agonist for four consecutive days. One day after the last challenge, mice were anesthetized using i.p. injection of ketamine (10 mg mL^−1) and xylazine (1 mg mL^−1). Measurements of airway resistance and dynamic compliance were conducted with the Fine Pointe RC System (Buxco Research Systems, Wilmington, N.C.), in which mice were mechanically ventilated using a modified version as previously described^36,67. Mice were sequentially challenged with aerosolized PBS (baseline), followed by increasing doses of methacholine. Maximum lung resistance (RL) and minimum compliance (Cdyn) values were recorded during a three-minute period after each methacholine challenge.
After measurements of AHR, the trachea was canulated and the lungs lavaged three times with 1 mL ice cold PBS to collect BALF cells as previously described^68. […]

[2] = molecular target: α4β2 subtype of nAChR (Homo sapiens, UniProt P17787+P43681); details: cited from earlier work
Sequence of α4β2 subtype of nAChR (P43681 29-627 limits assumed): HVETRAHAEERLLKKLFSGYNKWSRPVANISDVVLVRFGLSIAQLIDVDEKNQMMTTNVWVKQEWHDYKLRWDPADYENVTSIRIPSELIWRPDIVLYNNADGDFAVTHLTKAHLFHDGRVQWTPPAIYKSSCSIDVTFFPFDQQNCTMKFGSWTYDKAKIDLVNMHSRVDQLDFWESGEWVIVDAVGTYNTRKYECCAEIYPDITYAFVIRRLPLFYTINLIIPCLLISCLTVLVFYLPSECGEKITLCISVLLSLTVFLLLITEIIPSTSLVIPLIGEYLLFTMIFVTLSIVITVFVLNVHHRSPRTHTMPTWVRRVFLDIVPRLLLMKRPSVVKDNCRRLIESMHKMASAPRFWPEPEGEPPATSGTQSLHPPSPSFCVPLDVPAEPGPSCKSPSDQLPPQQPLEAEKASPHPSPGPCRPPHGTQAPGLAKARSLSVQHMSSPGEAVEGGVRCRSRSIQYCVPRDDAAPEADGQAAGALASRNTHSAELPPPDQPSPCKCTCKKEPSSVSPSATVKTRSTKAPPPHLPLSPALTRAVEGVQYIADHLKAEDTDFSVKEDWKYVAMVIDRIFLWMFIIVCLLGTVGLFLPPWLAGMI
Sequence of α4β2 subtype of nAChR (P17787 26-502): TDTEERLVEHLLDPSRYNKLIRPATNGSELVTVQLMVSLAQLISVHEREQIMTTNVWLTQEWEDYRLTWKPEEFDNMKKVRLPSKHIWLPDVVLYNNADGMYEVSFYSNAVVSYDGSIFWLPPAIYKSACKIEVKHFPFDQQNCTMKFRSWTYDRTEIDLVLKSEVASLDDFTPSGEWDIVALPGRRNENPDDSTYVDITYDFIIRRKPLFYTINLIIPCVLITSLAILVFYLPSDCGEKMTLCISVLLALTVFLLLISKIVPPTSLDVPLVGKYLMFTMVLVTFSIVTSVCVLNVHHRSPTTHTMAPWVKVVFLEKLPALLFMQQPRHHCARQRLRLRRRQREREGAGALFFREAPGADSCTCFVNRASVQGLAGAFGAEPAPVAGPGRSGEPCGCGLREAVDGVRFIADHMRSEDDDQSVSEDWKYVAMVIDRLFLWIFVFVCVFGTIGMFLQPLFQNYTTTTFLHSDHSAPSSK

[3] = system: Rag2−/− GC−/− mice; test: IL-33-induced AHR in Rag2−/− GC−/− mice after adoptive transfer of WT or α7nAChR-deficient ILC2s; assay type: in vivo, mouse; details: IL-33, agonist 125 μg days 1-3
Method: FIGS. 4A-4E: α7nAChR expression is critical for GTS-21 action on ILC2s in vivo. BALB/cByJ and α7nAChR^−/− mice were intranasally challenged with rm-IL-33 or PBS, and also given α7nAChR agonist (125 μg) or PBS on days 1-3. Measurement of lung function and analysis of BAL followed on day 4. (FIG. 4A) Lung resistance. (FIG. 4B) Total number of eosinophils in BALF. (FIG. 4C) Rag^−/− GC^−/− mice were received ILC2s from either WT or α7nAChR^−/− mice. After the adoptive transfer, mice were intranasally challenged with rm-IL-33 or PBS; they also received α7nAChR agonist (125 μg) or PBS on days 1-3. Measurement of lung function and analysis of BAL followed on day 4, according to scheme 4C. (FIG. 4D) Lung resistance. (FIG. 4E) Total number of eosinophils in BALF. Data are representative of at least three independent experiments and are presented as means±SEM (n=4; Student's test ***, p<0.001, WT IL-33+α7nAChR agonist vs. α7nAChR^−/− IL-33+α7nAChR agonist).
Given that a variety of cells participate in allergic inflammation, Applicants wanted to investigate the effect of the agonist specifically on ILC2s. Rag2^−/− GC^−/− mice lack not only B and T cells, but NK cells and ILC2s as well. Using methods previously described by our laboratory^36, Applicants adoptively transferred WT or α7nAChR-deficient ILC2s into these Rag2^−/− GC^−/− mice, and then treated them with IL-33, with or without α7nAChR agonist. As expected, Applicants observed a decrease of AHR and of eosinophil recruitment in mice injected with WT ILC2s in response to α7nAChR treatment (FIGS. 4C-4E).
as §1, with “Mice were sequentially challenged with aerosolized PBS (baseline), followed by increasing doses of methacholine.” left out

[4] = i.n. rm-IL-33, agonist 125 μg days 1-3, day 4
[5] = i.n. rm-IL-33, agonist 125 μg days 1-3, measured day 4
[6] = i.n. rm-IL-33, agonist 125 μg days 1-3, vs untreated mice
[7] = Rag2−/− GC−/− mice injected with WT ILC2s
[8] = Rag2−/− GC−/− mice injected with α7nAChR-deficient ILC2s

In the case of `COc1ccc(/C=C2\CCCN=C2c2cccnc2)c(OC)c1` [GTS-21, 3-[(3E)-3-[(2,4-dimethoxyphenyl)methylidene]-5,6-dihydro-4H-pyridin-2-yl]pyridine], the “absolute number of lung ILC2s” value [1, 4] is reported as “significantly suppressed”, the “airway wall thickness (lung histology)” value [1, 4] is reported as “prevented” and the “eosinophilic infiltration in BALF” value [1, 4] is reported as “decreased”. The “frequency of lung ILC2s” value [1, 4] was “significantly suppressed”, the “infiltrated cells (lung histology)” value [1, 4] was “prevented” and the “total cell counts (TCC) in BALF” value [1, 4] was “decreased”. For the same molecule, the “dynamic compliance (Cdyn)” value [1, 5] was “significantly reduced”, the “lung resistance (RL)” value [1, 5] was “significantly reduced” and the “IL-5 producing lung ILC2s (intracellular cytokine assay)” value [1, 6] was “significantly decreased”. For the same molecule, the “IL-13 producing lung ILC2s (intracellular cytokine assay)” value [1, 6] was “significantly decreased”, the “binding to the α4β2 subtype” value [2] was “binds” and the AHR [3, 7] was “decrease”. The eosinophil recruitment [3, 7] was “decrease”, the AHR [3, 8] was “affected neither AHR nor eosinophilia” and the eosinophilia [3, 8] was “affected neither AHR nor eosinophilia”.

From patent US20190247376A1, “NICOTINIC ACETYLCHOLINE RECEPTOR AGONIST ATTENUATES ILC2-DEPENDENT AIRWAY HYPERREACTIVITY” (University of Southern California, priority 2016, published 2019)
